Plasma adiponectin level and p-ACC level data for one compound are collected here from patent US10980824B2, “Pharmaceutical composition comprising quercetin-3-O-β-D-xylopyranoside for preventing or treating liver disease” (Hongcheon Institute of Medical Herb, priority 2016, dated 2021).

In one experiment the test system is adiponectin. Description: Effect on recovering adiponectin in alcoholic steatosis mice. Format: in vivo, C57BL/6N mice. To be noted: alcohol+compound group vs alcohol-fed group (FIG. 13). How it is done:
Adiponectin, which is a major anti-inflammatory agent, is an adipose tissue-derived adipokine. […] Thus, a plasma level of adiponectin was analyzed by ELISA to evaluate the effect of quercetin-3-O-β-D-xylopyranoside on regulation of the adiponectin content.
Specifically, the plasma level of adiponectin was analyzed by using RT-PCR and ELISA in the same manner as the measurement of the TNF-α level in liver tissue as described above in Example 2-8.

A further experiment concerns p-ACC. Description: Western blot of p-ACC in liver tissue. Format: in vivo, C57BL/6N mice. To be noted: compound group vs alcohol-fed group. Here is the method: Expression of p-AMPKα, p-ACC, and CPT-1, which regulate intrahepatic lipid metabolism, was analyzed by western blot analysis to understand the mechanism involved in pathogenesis of alcoholic steatosis in detail. The specific western blot analysis method is as follows.
First, a mouse liver homogenate was prepared by using a RIPA buffer solution including a protease and tyrosine phosphatase inhibitor cocktail (Sigma). Protein concentrations of lysates were determined using a Bicinchoninic (BCA) Protein Assay Kit (Thermo Scientific, IL, USA) according to the manufacturer's instructions. Isolated soluble proteins ([…]) were separated on an 8% to 15% SDS-polyacrylamide gel. The separated proteins were electroblotted on a nitrocellulose transfer membrane (Bio-Rad, Hercules, Calif., USA). The membrane was incubated with 5% non-fat dry milk for 1 hour and then probed for antigens using antibodies diluted to 1:1,000, and was incubated with anti-pAMPKα, anti-AMPKα, anti-PACC, anti-ACC, anti-CYP2E1, anti-CPT1a (Cell Signaling Technology), and anti-β-actin (Santa Cruz Biotechnology) at 4° C. for 18 hours. […] Band density was measured using ImageJ (National Institutes of Health, Bethesda, Md., USA) and expressed as a multiple relative to β-actin.
In general terms: In western blotting, separated proteins are transferred to a membrane and probed.

On to `O=c1c(O[C@@H]2OC[C@@H](O)[C@H](O)[C@H]2O)c(-c2ccc(O)c(O)c2)oc2cc(O)cc(O)c12` [quercetin-3-O-β-D-xylopyranoside], for which the plasma adiponectin level result in the experiment with adiponectin is “significantly recovered”. Further, in the experiment with p-ACC, the p-ACC level entry was “significantly restored”.
